Measurements published in patent publication US7101878B1 (Agouron Pharmaceuticals, Inc., priority 1998, dated 2006).

target: T1, mouse GnRH receptor (Mus musculus, UniProt Q01776); assay: Radioligand binding, 125I-GnRH-A, 293 cells expressing mouse GnRH receptors; details: 1 h, substrate remaining; 10 uM compound; closer to zero = closer to 100% inhibition; read-out: S%R 10 uM mGnRHR
T1 construct: expressed in transfected cells; host or cells: 293 cells
T1 sequence (Q01776 1-327): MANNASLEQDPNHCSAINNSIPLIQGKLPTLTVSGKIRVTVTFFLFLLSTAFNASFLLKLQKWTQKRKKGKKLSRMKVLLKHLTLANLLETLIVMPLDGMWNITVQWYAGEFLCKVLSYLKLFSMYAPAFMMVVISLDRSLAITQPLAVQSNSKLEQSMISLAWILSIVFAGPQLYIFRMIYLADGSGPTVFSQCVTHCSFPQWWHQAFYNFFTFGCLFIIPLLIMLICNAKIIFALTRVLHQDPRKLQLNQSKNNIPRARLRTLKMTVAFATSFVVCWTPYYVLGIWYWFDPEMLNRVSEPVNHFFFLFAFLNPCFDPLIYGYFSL
Method in brief: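 Bound label captured on 0.1% polyethyleneimine-treated GF/C filters, washed three times with PBS, counted. IC50 derived; identical set-up for every species.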

| SMILES | remaining activity at 10 µM |
| --- | --- |
| Cc1cc2c(cc1Cc1ccc(C(=O)NC(C)CCCC(C)C)o1)C(C)(C)CCC2(C)C (stereo not shown) [Compound 587] | 29% |
| Cc1cc2c(cc1Cc1ccc(C(=O)N(CCN(C)C)Cc3ccccc3[N+](=O)[O-])o1)C(C)(C)CCC2(C)C [Compound 590] | -2% |
| Cc1cc2c(cc1Cc1ccc(C(=O)N3C[C@H]4CCCC[C@H]4CC3C(=O)NC(C)(C)C)o1)C(C)(C)CCC2(C)C (stereo partly shown) [Compound 591] | 48% |
| Cc1cc2c(cc1Cc1ccc(C(=O)NCCCCCO)o1)C(C)(C)CCC2(C)C [Compound 593] | 2% |
| Cc1cc2c(cc1Cc1ccc(C(=O)NCC(O)c3ccccc3)o1)C(C)(C)CCC2(C)C (stereo not shown) [Compound 596] | -1% |
| CC(=O)N1CCCN(C(=O)c2ccc(Cc3cc4c(cc3C)C(C)(C)CCC4(C)C)o2)CC1 [Compound 599] | 28% |
| Cc1cc2c(cc1Cc1ccc(C(=O)NCc3ccc(F)cc3)o1)C(C)(C)CCC2(C)C [Compound 604] | 4% |
| Cc1cc2c(cc1Cc1ccc(C(=O)N(Cc3ccco3)C3CC(=O)N(C)C3=O)o1)C(C)(C)CCC2(C)C (stereo not shown) [Compound 606] | 32% |
| COC(CNC(=O)c1ccc(Cc2cc3c(cc2C)C(C)(C)CCC3(C)C)o1)OC [Compound 607] | -2% |
| COC(CN(C)C(=O)c1ccc(Cc2cc3c(cc2C)C(C)(C)CCC3(C)C)o1)OC [Compound 611] | 11% |
| Cc1cc2c(cc1Cc1ccc(C(=O)NCc3cccc(CNC(=O)C(Cc4ccccc4)c4ccccc4)c3)o1)C(C)(C)CCC2(C)C (stereo not shown) [Compound 613] | 53% |
| COc1cc2c(cc1OC)C(CC#N)N(C(=O)c1ccc(Cc3cc4c(cc3C)C(C)(C)CCC4(C)C)o1)CC2 (stereo not shown) [Compound 614] | 48% |
| Cc1cc2c(cc1Cc1ccc(C(=O)NC(C)c3ccccc3)o1)C(C)(C)CCC2(C)C (stereo not shown) [Compound 616] | 29% |
| Cc1cc2c(cc1Cc1ccc(C(=O)NCCCCCCO)o1)C(C)(C)CCC2(C)C [Compound 617] | -2% |
| Cc1cc2c(cc1Cc1ccc(C(=O)N(C)CCC3OCCO3)o1)C(C)(C)CCC2(C)C [Compound 619] | 5% |
| Cc1cc2c(cc1Cc1ccc(C(=O)N(Cc3cccn3C)C3CCN(Cc4ccccc4)C3)o1)C(C)(C)CCC2(C)C (stereo not shown) [Compound 623] | 2% |
| Cc1cc2c(cc1Cc1ccc(C(=O)NCCCCCCN(C)C)o1)C(C)(C)CCC2(C)C [Compound 627] | -6% |
| CCOC(=O)N1CCN(C(=O)c2ccc(Cc3cc4c(cc3C)C(C)(C)CCC4(C)C)o2)CC1 [Compound 628] | 35% |
| Cc1cc2c(cc1Cc1ccc(C(=O)N(CCC(c3ccccc3)c3ccccc3)Cc3ccco3)o1)C(C)(C)CCC2(C)C [Compound 630] | 58% |
| Cc1cc2c(cc1Cc1ccc(C(=O)N(Cc3cccc4ccccc34)C3CCN(Cc4ccccc4)C3)o1)C(C)(C)CCC2(C)C (stereo not shown) [Compound 631] | 43% |
| Cc1cc2c(cc1Cc1ccc(C(=O)NCCc3ccc(F)cc3)o1)C(C)(C)CCC2(C)C [Compound 632] | 21% |
| Cc1cc2c(cc1Cc1ccc(C(=O)N(C)CCC#N)o1)C(C)(C)CCC2(C)C [Compound 636] | 17% |
| Cc1cc2c(cc1Cc1ccc(C(=O)N(Cc3ccccc3)[C@@H](C)c3ccccc3)o1)C(C)(C)CCC2(C)C [Compound 637] | 55% |
| Cc1cc2c(cc1Cc1ccc(C(=O)N(Cc3ccc(C(C)C)cc3)C3CCN(Cc4ccccc4)C3)o1)C(C)(C)CCC2(C)C (stereo not shown) [Compound 638] | 53% |
| CSCCCNC(=O)c1ccc(Cc2cc3c(cc2C)C(C)(C)CCC3(C)C)o1 [Compound 640] | 2% |
| Cc1cc2c(cc1Cc1ccc(C(=O)N3CCC(O)CC3)o1)C(C)(C)CCC2(C)C [Compound 641] | 23% |
| COc1ccc(CCNC(=O)c2ccc(Cc3cc4c(cc3C)C(C)(C)CCC4(C)C)o2)cc1Br [Compound 643] | 23% |
| CSCCNC(=O)c1ccc(Cc2cc3c(cc2C)C(C)(C)CCC3(C)C)o1 [Compound 648] | 4% |

The next lines start with the values.

| remaining activity at 10 µM | SMILES |
| --- | --- |
| 57% | Cc1cc2c(cc1Cc1ccc(C(=O)N3CCCCC3C(=O)NC(c3ccccc3)c3ccccc3)o1)C(C)(C)CCC2(C)C (stereo not shown) [Compound 586] |
| 4% | Cc1cc2c(cc1Cc1ccc(C(=O)N3CCC(N4CCCC4)CC3)o1)C(C)(C)CCC2(C)C [Compound 588] |
| 35% | CCCN(Cc1ccc([N+](=O)[O-])cc1)C(=O)c1ccc(Cc2cc3c(cc2C)C(C)(C)CCC3(C)C)o1 [Compound 589] |
| 17% | Cc1cc2c(cc1Cc1ccc(C(=O)N3CC(C)OC(C)C3)o1)C(C)(C)CCC2(C)C (stereo not shown) [Compound 592] |
| 16% | Cc1cc2c(cc1Cc1ccc(C(=O)NCCC3=CCCCC3)o1)C(C)(C)CCC2(C)C [Compound 594] |
| 24% | Cc1cc2c(cc1Cc1ccc(C(=O)N(CCc3ccccn3)Cc3ccccc3)o1)C(C)(C)CCC2(C)C [Compound 595] |
| 11% | CCC(CO)NC(=O)c1ccc(Cc2cc3c(cc2C)C(C)(C)CCC3(C)C)o1 (stereo not shown) [Compound 597] |
| -4% | Cc1cc2c(cc1Cc1ccc(C(=O)N(CCC3CCCN3C)Cc3ccc4ccccc4c3)o1)C(C)(C)CCC2(C)C (stereo not shown) [Compound 598] |
| -4% | Cc1cc2c(cc1Cc1ccc(C(=O)N3CCC(CCCC4CCN(CCO)CC4)CC3)o1)C(C)(C)CCC2(C)C [Compound 600] |
| 17% | Cc1cc2c(cc1Cc1ccc(C(=O)NCC(C)(C)CO)o1)C(C)(C)CCC2(C)C [Compound 601] |
| 44% | Cc1cc2c(cc1Cc1ccc(C(=O)NCCNc3cccc4ccccc34)o1)C(C)(C)CCC2(C)C [Compound 602] |
| -4% | Cc1cc2c(cc1Cc1ccc(C(=O)N(CCN3CCCCC3)Cc3ccccc3)o1)C(C)(C)CCC2(C)C [Compound 603] |
| 19% | Cc1cc2c(cc1Cc1ccc(C(=O)N3CCC(C)CC3)o1)C(C)(C)CCC2(C)C [Compound 605] |
| 8% | Cc1cc2c(cc1Cc1ccc(C(=O)N(C)CCCN(C)C)o1)C(C)(C)CCC2(C)C [Compound 608] |
| 47% | Cc1cc2c(cc1Cc1ccc(C(=O)NCCS)o1)C(C)(C)CCC2(C)C [Compound 609] |
| 0% | Cc1cc2c(cc1Cc1ccc(C(=O)N(Cc3cccnc3)Cc3cccnc3)o1)C(C)(C)CCC2(C)C [Compound 610] |
| 9% | Cc1cc2c(cc1Cc1ccc(C(=O)N(Cc3ccsc3)C3CCN(Cc4ccccc4)C3)o1)C(C)(C)CCC2(C)C (stereo not shown) [Compound 612] |
| 7% | CCN(CC)CCNC(=O)c1ccc(Cc2cc3c(cc2C)C(C)(C)CCC3(C)C)o1 [Compound 615] |

| remaining activity at 10 µM | SMILES |
| --- | --- |
| 9% | Cc1cc2c(cc1Cc1ccc(C(=O)N(Cc3ccoc3)C3CCN(Cc4ccccc4)C3)o1)C(C)(C)CCC2(C)C (stereo not shown) [Compound 618] |
| 3% | Cc1cc2c(cc1Cc1ccc(C(=O)NCC(C)(C)CN(C)C)o1)C(C)(C)CCC2(C)C [Compound 620] |
| 43% | Cc1cc2c(cc1Cc1ccc(C(=O)N3CCCC3C(=O)NC(c3ccccc3)c3ccccc3)o1)C(C)(C)CCC2(C)C (stereo not shown) [Compound 621] |
| 43% | Cc1cc2c(cc1Cc1ccc(C(=O)NCCc3ccc(Oc4ccccc4)cc3)o1)C(C)(C)CCC2(C)C [Compound 622] |
| 8% | C=C(C)CNC(=O)c1ccc(Cc2cc3c(cc2C)C(C)(C)CCC3(C)C)o1 [Compound 624] |
| 8% | Cc1cc2c(cc1Cc1ccc(C(=O)NC(C)CN(C)C)o1)C(C)(C)CCC2(C)C (stereo not shown) [Compound 625] |
| 10% | Cc1cc2c(cc1Cc1ccc(C(=O)NC3CCS(=O)(=O)C3)o1)C(C)(C)CCC2(C)C (stereo not shown) [Compound 626] |
| 17% | Cc1cc2c(cc1Cc1ccc(C(=O)N(Cc3ccccc3)C(C)C)o1)C(C)(C)CCC2(C)C [Compound 629] |
| 10% | Cc1cc2c(cc1Cc1ccc(C(=O)NC(C)(C)CO)o1)C(C)(C)CCC2(C)C [Compound 633] |
| 1% | Cc1cc2c(cc1Cc1ccc(C(=O)N3CCC4(C)CC(C)(C)CC45CC35)o1)C(C)(C)CCC2(C)C (stereo not shown) [Compound 634] |
| 27% | Cc1cccc(N2CCN(C(=O)c3ccc(Cc4cc5c(cc4C)C(C)(C)CCC5(C)C)o3)CC2C)c1 (stereo not shown) [Compound 635] |
| 57% | Cc1cc2c(cc1Cc1ccc(C(=O)NC(C)c3ccc([N+](=O)[O-])cc3)o1)C(C)(C)CCC2(C)C (stereo not shown) [Compound 639] |
| 19% | Cc1cc2c(cc1Cc1ccc(C(=O)NCCc3ccc(Cl)cc3)o1)C(C)(C)CCC2(C)C [Compound 642] |
| 22% | CCN(Cc1ccc(C)cc1)C(=O)c1ccc(Cc2cc3c(cc2C)C(C)(C)CCC3(C)C)o1 [Compound 644] |
| 51% | Cc1cc2c(cc1Cc1ccc(C(=O)N(CCC(c3ccccc3)c3ccccc3)Cc3ccccn3)o1)C(C)(C)CCC2(C)C [Compound 645] |
| 0% | CCN1CC(N(Cc2ccccc2C#N)C(=O)c2ccc(Cc3cc4c(cc3C)C(C)(C)CCC4(C)C)o2)CN1CC [Compound 646] |
| 35% | COc1cc(OC)cc(N2CCN(C(=O)c3ccc(Cc4cc5c(cc4C)C(C)(C)CCC5(C)C)o3)CC2)c1 [Compound 647] |
| 28% | Cc1cc2c(cc1Cc1ccc(C(=O)N3CCC4(CC3)C(=O)NCN4c3ccccc3)o1)C(C)(C)CCC2(C)C [Compound 649] |
